Results from US11566007B2, “Ras inhibitors” (Revolution Medicines, Inc., priority 2019, dated 2023).
Where two headings read alike, the source gives them in different places.

Key:
[1] = system: NCI-H358 cells (K-Ras G12C); experiment: Potency assay: pERK in NCI-H358 cells; type: cell-based, human; conditions: Homo sapiens, NCI-H358; H358 KRAS G12C; read-out: pERK EC50
Outline: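 pERK decrease read by AlphaLISA SureFire p-ERK1/2 or In-Cell Western after 4 h compound exposure at 37 °C, 5% CO2.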

NCI-H358 (K-Ras G12C) = experiment: CellTiter-Glo cell viability assay, NCI-H358; type: cell-based, human; conditions: Homo sapiens, NCI-H358, 120 h, class symbols
Outline: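 Compounds dispensed directly onto seeded K-Ras mutant cells; plates read on day 5 after ~30 min equilibration to room temperature, by CellTiter-Glo luminescence. Signal normalized as (sample/mean DMSO)×100, then fitted to a four-parameter logistic curve.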

[2] = read-out: Additional H358 Cell Viability assay data (K-Ras G12C, IC50, uM), NCI-H358, 5-day treatment
[3] = NCI-H358, 5-day treatment, read-out: Additional H358 Cell Viability assay data (K-Ras G12C, IC50)

| SMILES | EC50 [1] [nM] | IC50 (NCI-H358 (K-Ras G12C); [2]) [µM] | IC50 (NCI-H358 (K-Ras G12C); [3]) [µM] |
| --- | --- | --- | --- |
| C=CC(=O)N1C[C@H](C)[C@H](C(=O)N(C)[C@H](C(=O)N[C@H]2Cc3cc(O)cc(c3)-c3ccc4c(c3)c(c(-c3cccnc3COC)n4CC)CC(C)(C)COC(=O)[C@@H]3CCCN(N3)C2=O)C(C)C)C1 [Example A56] | < 5000 | < 0.01 | – |
| C=CC(=O)N1C[C@H](C)[C@H](C(=O)N(C)[C@H](C(=O)N[C@H]2Cc3cc(O)cc(c3)-c3ccc4c(c3)c(c(-c3cccnc3COC)n4CC)CC(C)(C)COC(=O)[C@@H]3CCCN(N3)C2=O)C2CCCC2)C1 [Example A57] | < 5000 | – | < 0.01 |
| C=CC(=O)N1CC[C@H](C(=O)N(C)[C@H](C(=O)N[C@H]2Cc3cc(O)cc(c3)-c3ccc4c(c3)c(c(C3=C(COC)COCC3)n4CC)CC(C)(C)COC(=O)[C@@H]3CCCN(N3)C2=O)C(C)C)C1 [Example A58] | < 5000 | – | 0.01 to 0.1 |
| C=CC(=O)N1CC[C@H](C(=O)N(C)[C@H](C(=O)N[C@H]2Cc3cc(OC(C)=O)cc(c3)-c3ccc4c(c3)c(c(-c3ccccc3CN(C)C)n4CC)CC(C)(C)COC(=O)[C@@H]3CCCN(N3)C2=O)C(C)C)C1 [Example A59] | < 5000 | 0.1 to 1 | – |
| C=CC(=O)N1CC[C@H](C(=O)N(C)[C@H](C(=O)N[C@H]2Cc3cc(O)cc(c3)-c3ccc4c(c3)c(c(-c3cccnc3N3CC(OC)C3)n4CC)CC(C)(C)COC(=O)[C@@H]3CCCN(N3)C2=O)C(C)C)C1 [Example A60] | < 5000 | – | 0.01 to 0.1 |
| C=CC(=O)N1CC[C@H](C(=O)N(C)[C@H](C(=O)N[C@H]2Cc3cc(O)cc(c3)-c3ccc4c(c3)c(c(-c3cncnc3)n4CC)CC(C)(C)COC(=O)[C@@H]3CCCN(N3)C2=O)C(C)C)C1 [Example A61] | < 5000 | – | 0.01 to 0.1 |
| C=CC(=O)N1CC[C@H](C(=O)N(C)[C@H](C(=O)N[C@H]2Cc3cc(O)cc(c3)-c3ccc4c(c3)c(c(-c3cncc(C#N)c3)n4CC)CC(C)(C)COC(=O)[C@@H]3CCCN(N3)C2=O)C(C)C)C1 [Example A62] | < 5000 | – | 0.01 to 0.1 |
| C=CC(=O)N1CC[C@@]2(CCCN([C@H](C(=O)N[C@H]3Cc4cc(O)cc(c4)-c4ccc5c(c4)c(c(-c4ccccc4CCOC)n5CC)CC(C)(C)COC(=O)[C@@H]4CCCN(N4)C3=O)C(C)C)C2=O)C1 [Example A63] | < 5000 | – | 0.1 to 1 |
| C=CC(=O)N1CC[C@H](C(=O)N(C)[C@H](C(=O)N[C@H]2Cc3cc(O)cc(c3)-c3ccc4c(c3)c(c(C3=C(COC)CCCC3)n4CC)CC(C)(C)COC(=O)[C@@H]3CCCN(N3)C2=O)C(C)C)C1 [Example A64] | < 5000 | – | 0.01 to 0.1 |
| C=CC(=O)N1CC[C@H](C(=O)N(C)[C@H](C(=O)N[C@H]2Cc3cc(O)cc(c3)-c3ccc4c(c3)c(c([C@@H]3CC=CN=C3COC)n4CC)CC(C)(C)COC(=O)[C@@H]3CCCN(N3)C2=O)C(C)C)C1 [Example A65] | < 5000 | – | 0.1 to 1 |
| C=CC(=O)N1CC[C@H](C(=O)N(C)[C@H](C(=O)N[C@H]2Cc3cc(O)cc(c3)-c3ccc4c(c3)c(c(-c3cccnc3COC)n4C)CC(C)(C)COC(=O)[C@@H]3CCCN(N3)C2=O)C(C)C)C1 [Example A66] | < 5000 | – | 0.01 to 0.1 |
| CCn1c(-c2cccnc2COC)c2c3cc(ccc31)-c1cc(O)cc(c1)C[C@H](NC(=O)[C@H](C(C)C)N(C)C(=O)c1ccc(NC(=O)/C=C/CN(C)C)cn1)C(=O)N1CCC[C@H](N1)C(=O)OCC(C)(C)C2 [Example A67, (2E)-4-(dimethylamino)-N-(6-{[(1S)-1-{[(8S,14S)-22-ethyl-4-hydroxy-21-[2-(methoxymethyl)pyridin-3-yl]-18,18-dimethyl-9,15-dioxo-16-oxa-10,22,28-triazapentacyclo[18.5.2.1^2,^6.1^10,^14.0^23,^27]nonacosa-1(26),2,4,6(29),20,23(27),24-heptaen-8-yl]carbamoyl}-2-methylpropyl](methyl)carbamoyl}pyridin-3-yl)but-2-enamide] | < 5000 | – | 0.1 to 1 |
| C=CC(=O)N1CC[C@@]2(CCN([C@H](C(=O)N[C@H]3Cc4cc(O)cc(c4)-c4ccc5c(c4)c(c(-c4ccccc4CCOC)n5CC)CC(C)(C)COC(=O)[C@@H]4CCCN(N4)C3=O)C(C)C)C2=O)C1 [Example A68] | < 5000 | – | 0.1 to 1 |
